Values joined by “and” are separate entries in the source; they are usually repeats but may differ in a detail not shown here. Identical values can stand only once. Where a SMILES comes first, the peptide text is derived from it. [ ]: non-standard residue; d: D form. The star is where a group is joined. pNA = O=[N+]([O-])c1ccc(N*)cc1
Key:
Urokinase (UK) = biological target: T1, Urokinase (UK) (Homo sapiens, UniProt P00749); experiment: Substrate specificity: reaction of chromogenic substrates with urokinase, absorbance read-out; assay type: biochemical; settings: for Absorbance (O.D.) UK: S0 = 2.0 mM, 37° C., 5 minutes, pH 8.2; for Relative reactivity with UK: PS-2203N taken as 100, initial substrate concentration S0 = 2 mM
T1 construct: purchased Mochida Pharmaceutical Lot No. 2A-139 (catalogue number not given)
Description: (§1) The specificities of the novel substrates synthesized above were examined by reacting them with various enzymes.
(§2) (1) Substrate solution: 2 mmoles/liter H2 O
(§3) (2) Buffer solution: Concentrations of Tris, NaCl and CaCl2 and pH value of reaction for every enzyme were as follows: […]
(§4) Into a silicone-treated test tube made of hard glass or a plastic were introduced 0.3 ml of a buffer solution and 0.1 ml of an enzyme reagent. After preheating them for 5 minutes in a thermostated bath kept at 37° C., 0.1 ml of substrate solution was added and an enzyme reaction was carried out at 37° C. for 5 minutes. When an exact five minutes had passed, 2.0 ml of the reaction stopper or the reaction-stopping color-forming reagent was added to stop the enzyme reaction, and subsequently the reaction mixture was allowed to stand at 37° C. for 10 minutes. Then, absorbance was measured at 405 nm or 700 nm.

Thrombin (TH) = biological target: T2, Thrombin (TH) (Bos taurus, UniProt P00735); experiment: Substrate specificity: reaction of chromogenic substrates with thrombin, absorbance read-out; assay type: biochemical, Bovine; settings: for Absorbance (O.D.) TH: S0 = 2.0 mM, 37° C., 5 minutes, pH 8.5; for Relative reactivity with TH: PS-2203N taken as 100, initial substrate concentration S0 = 2 mM; for Reactivity with thrombin: relative to Z-D-Orn-Phe-Arg-PNA (PS-2203N) as 100
T2 construct: purchased Mochida Pharmaceutical Lot No. 65146 (catalogue number not given)
Description: as §1, §2, §3, §4

[1] = biological target: T3, Glandular kallikrein (HGK) (Homo sapiens, UniProt P06870); experiment: Substrate specificity: reaction of chromogenic substrates with glandular kallikrein, absorbance read-out; assay type: biochemical, Human urine; settings: for Absorbance (O.D.) HGK: S0 = 2.0 mM, 37° C., 5 minutes, pH 9.0; for Relative reactivity with HGK: PS-2203N taken as 100, initial substrate concentration S0 = 2 mM; for Reactivity with glandular kallikrein: relative to Z-D-Orn-Phe-Arg-PNA (PS-2203N) as 100
T3 construct: purchased Green Cross Lot No. 1003SM (catalogue number not given); host or cells: human urine
Description: as §1, §2, §3, §4

Plasmin (PL) = biological target: T4, Plasmin (PL) (Homo sapiens, UniProt P00747); experiment: Substrate specificity: reaction of chromogenic substrates with plasmin, absorbance read-out; assay type: biochemical; settings: for Absorbance (O.D.) PL: S0 = 2.0 mM, 37° C., 5 minutes, pH 7.8; for Relative reactivity with PL: PS-2203N taken as 100, initial substrate concentration S0 = 2 mM; for Reactivity with plasmin: relative to Z-D-Orn-Phe-Arg-PNA (PS-2203N) as 100
T4 construct: purchased Green Cross Lot No. PL-35 (catalogue number not given)
Description: as §1, §2, §3, §4

Xa factor (FXa) = biological target: T5, Xa factor (FXa) (Bos taurus, UniProt P00743); experiment: Substrate specificity: reaction of chromogenic substrates with Xa factor, absorbance read-out; assay type: biochemical, Bovine; settings: for Absorbance (O.D.) FXa: S0 = 2.0 mM, 37° C., 5 minutes, pH 8.3; for Relative reactivity with FXa: PS-2203N taken as 100, initial substrate concentration S0 = 2 mM; for Reactivity with Xa factor: relative to Z-D-Orn-Phe-Arg-PNA (PS-2203N) as 100
T5 construct: purchased Sigma Lot No. 73F-9450 (catalogue number not given)
Description: as §1, §2, §3, §4

Plasma kallikrein (HPK) = biological target: T6, Plasma kallikrein (HPK) (Homo sapiens, UniProt P03952); experiment: Substrate specificity: reaction of chromogenic substrates with plasma kallikrein, absorbance read-out; assay type: biochemical; settings: for Absorbance (O.D.) HPK: S0 = 2.0 mM, 37° C., 5 minutes, pH 9.0; for Relative reactivity with HPK: PS-2203N taken as 100, initial substrate concentration S0 = 2 mM
T6 construct: purchased AB Kabi Diagnostica Lot No. 3740152 (catalogue number not given)
Description: as §1, §2, §3, §4

[2] = 700 nm (CHA substrates, pentaamine ferroate)

T6 sequence (P03952 391-638 limits assumed): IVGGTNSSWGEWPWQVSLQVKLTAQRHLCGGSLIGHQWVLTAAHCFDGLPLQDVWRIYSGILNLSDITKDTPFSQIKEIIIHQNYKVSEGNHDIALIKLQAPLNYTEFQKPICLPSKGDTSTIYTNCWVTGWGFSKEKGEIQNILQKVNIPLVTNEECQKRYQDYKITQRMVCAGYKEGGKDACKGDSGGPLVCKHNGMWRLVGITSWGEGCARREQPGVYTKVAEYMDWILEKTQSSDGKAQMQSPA
T6 sequence (P03952 20-390 partner limits assumed): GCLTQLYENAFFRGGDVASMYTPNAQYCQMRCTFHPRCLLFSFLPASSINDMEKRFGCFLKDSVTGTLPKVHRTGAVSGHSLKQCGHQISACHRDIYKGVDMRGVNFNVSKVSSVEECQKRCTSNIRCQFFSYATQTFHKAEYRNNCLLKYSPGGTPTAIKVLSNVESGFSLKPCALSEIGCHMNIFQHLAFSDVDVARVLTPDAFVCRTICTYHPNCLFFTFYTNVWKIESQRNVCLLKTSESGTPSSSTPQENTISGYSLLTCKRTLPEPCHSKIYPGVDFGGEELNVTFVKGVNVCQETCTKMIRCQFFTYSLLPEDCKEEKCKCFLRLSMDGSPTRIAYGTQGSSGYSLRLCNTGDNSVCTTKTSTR
T5 sequence (P00743 234-492 limits assumed): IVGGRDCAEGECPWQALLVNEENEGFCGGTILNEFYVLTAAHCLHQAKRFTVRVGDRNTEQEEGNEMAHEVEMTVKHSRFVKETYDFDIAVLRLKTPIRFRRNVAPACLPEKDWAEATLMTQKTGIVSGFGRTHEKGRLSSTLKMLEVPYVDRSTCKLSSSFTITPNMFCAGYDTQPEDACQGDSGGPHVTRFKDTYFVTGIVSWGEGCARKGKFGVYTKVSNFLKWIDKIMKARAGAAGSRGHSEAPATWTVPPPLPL
T5 sequence (P00743 41-180 partner limits assumed): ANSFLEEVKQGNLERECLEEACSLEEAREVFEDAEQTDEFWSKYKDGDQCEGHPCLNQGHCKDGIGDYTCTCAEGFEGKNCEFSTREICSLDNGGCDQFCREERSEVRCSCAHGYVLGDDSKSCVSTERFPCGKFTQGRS
T4 sequence (P00747 581-810 limits assumed): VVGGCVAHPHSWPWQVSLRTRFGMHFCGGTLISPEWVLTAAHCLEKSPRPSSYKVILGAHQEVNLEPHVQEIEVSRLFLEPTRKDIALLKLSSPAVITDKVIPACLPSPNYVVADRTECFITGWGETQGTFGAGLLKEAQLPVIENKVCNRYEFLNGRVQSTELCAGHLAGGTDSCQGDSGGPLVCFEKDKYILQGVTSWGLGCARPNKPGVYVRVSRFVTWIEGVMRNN
T4 sequence (P00747 97-580 partner limits assumed): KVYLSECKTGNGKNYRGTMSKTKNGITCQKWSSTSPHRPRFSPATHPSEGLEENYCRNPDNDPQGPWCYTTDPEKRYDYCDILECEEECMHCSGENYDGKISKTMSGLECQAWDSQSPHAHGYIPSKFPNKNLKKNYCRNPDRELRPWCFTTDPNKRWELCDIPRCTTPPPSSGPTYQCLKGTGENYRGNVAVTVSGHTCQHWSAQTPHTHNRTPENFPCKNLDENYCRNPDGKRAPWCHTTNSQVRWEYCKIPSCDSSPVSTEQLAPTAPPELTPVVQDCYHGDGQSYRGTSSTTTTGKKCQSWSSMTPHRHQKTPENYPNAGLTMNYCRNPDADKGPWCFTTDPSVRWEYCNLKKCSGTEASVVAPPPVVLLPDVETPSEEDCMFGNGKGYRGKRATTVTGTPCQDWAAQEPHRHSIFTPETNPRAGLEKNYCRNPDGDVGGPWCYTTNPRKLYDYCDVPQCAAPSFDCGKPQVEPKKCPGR
T3 sequence (P06870 25-262): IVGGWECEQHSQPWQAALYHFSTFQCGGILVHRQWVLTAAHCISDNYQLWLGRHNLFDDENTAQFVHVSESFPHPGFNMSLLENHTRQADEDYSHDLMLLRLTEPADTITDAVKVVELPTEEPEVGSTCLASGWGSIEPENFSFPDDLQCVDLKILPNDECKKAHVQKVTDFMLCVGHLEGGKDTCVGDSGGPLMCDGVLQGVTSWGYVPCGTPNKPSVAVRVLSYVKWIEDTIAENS

Row | Absorbance (O.D.) UK (Urokinase (UK); [2]) [O.D.] | Absorbance (O.D.) TH (Thrombin (TH); [2]) [O.D.] | Absorbance (O.D.) HGK [1, 2] [O.D.] | Absorbance (O.D.) PL (Plasmin (PL); [2]) [O.D.] | Absorbance (O.D.) FXa (Xa factor (FXa); [2]) [O.D.] | Absorbance (O.D.) HPK (Plasma kallikrein (HPK); [2]) [O.D.] | Relative reactivity with UK (Urokinase (UK)) | Relative reactivity with TH (Thrombin (TH)) | Relative reactivity with HGK [1] | Relative reactivity with PL (Plasmin (PL)) | Relative reactivity with FXa (Xa factor (FXa)) | Relative reactivity with HPK (Plasma kallikrein (HPK)) | further results | Compound
1 | 0.002 | 0.009 | 0.010 | 0.094 | 0.046 | 0.316 |  |  |  |  |  |  |  | Z--D-Lys--Phe--Arg--CHA.2HCl [PS-2200]
2 |  |  |  |  |  |  | 50 | 269 | 169 | 48 | 169 | 131 | Absorbance (O.D.) UK (Urokinase (UK); 405 nm (PNA substrates)): 0.011 O.D.; Reactivity with urokinase (Urokinase (UK); relative to Z-D-Orn-Phe-Arg-PNA (PS-2203N) as 100): 50%; Absorbance (O.D.) TH (Thrombin (TH); 405 nm (PNA substrates)): 0.152 O.D.; Reactivity with thrombin (Thrombin (TH)): 269%; Absorbance (O.D.) HGK ([1]; 405 nm (PNA substrates)): 0.021 O.D.; Reactivity with glandular kallikrein [1]: 169%; Absorbance (O.D.) PL (Plasmin (PL); 405 nm (PNA substrates)): 0.121 O.D.; Reactivity with plasmin (Plasmin (PL)): 48%; Absorbance (O.D.) FXa (Xa factor (FXa); 405 nm (PNA substrates)): 0.389 O.D.; Reactivity with Xa factor (Xa factor (FXa)): 169%; Absorbance (O.D.) HPK (Plasma kallikrein (HPK); 405 nm (PNA substrates)): 0.325 O.D. | N=C(N)NCCC[C@H](NC(=O)[C@H](Cc1ccccc1)NC(=O)[C@H]1CCCN1)C(=O)Nc1ccc([N+](=O)[O-])cc1 [S-2302, H-D-Pro-Phe-Arg-PNA, reference compound] (H-[dP]-Phe-Arg-pNA)
3 | 0.0 | 0.007 | 0.005 | 0.079 | 0.022 | 0.331 | 0 | 2 | 15 | 14 | 4 | 59 | Reactivity with thrombin (Thrombin (TH)): 2%; Reactivity with glandular kallikrein [1]: 15%; Reactivity with plasmin (Plasmin (PL)): 14%; Reactivity with Xa factor (Xa factor (FXa)): 4% | Z-D-Orn-Phe-Arg-CHA [PS-2203]
4 | 0.0 | 0.007 | 0.010 | 0.094 | 0.016 | 0.234 |  |  |  |  |  |  |  | SBz--D-Lys--Phe--Arg--CHA.2HCl [PS-2206]
5 | 0.0 | 0.010 | 0.016 | 0.107 | 0.046 | 0.301 |  |  |  |  |  |  |  | MOC--D-Lys--Phe--Arg--CHA.2HCl [PS-2204]
6 | 0.0 | 0.015 | 0.014 | 0.158 | 0.010 | 0.255 |  |  |  |  |  |  |  | Tos-D-Lys-Phe-Arg-CHA.2HCl [PS-2205]
7 |  |  |  |  |  |  | 100 | 100 | 100 | 100 | 100 | 100 | Absorbance (O.D.) UK (Urokinase (UK); 405 nm (PNA substrates)): 0.021 O.D.; Absorbance (O.D.) TH (Thrombin (TH); 405 nm (PNA substrates)): 0.056 O.D.; Absorbance (O.D.) HGK ([1]; 405 nm (PNA substrates)): 0.013 O.D.; Absorbance (O.D.) PL (Plasmin (PL); 405 nm (PNA substrates)): 0.250 O.D.; Absorbance (O.D.) FXa (Xa factor (FXa); 405 nm (PNA substrates)): 0.230 O.D.; Absorbance (O.D.) HPK (Plasma kallikrein (HPK); 405 nm (PNA substrates)): 0.250 O.D. and 0.249 O.D. | Z-D-Orn-Phe-Arg-PNA [PS-2203N, reference compound]
8 | 0.0 | 0.005 | 0.006 | 0.128 | 0.040 | 0.245 |  |  |  |  |  |  |  | i-BOC--D-Lys--Phe--Arg--CHA.2HCl [PS-2202]

From patent US4816562A, “Novel substrate for plasma kallikrein and a method for measuring biological components using the same” (Nitto Boseki Co., Ltd., priority 1985, dated 1989)
